Key:
[1] = target: T1, human TRPA1 (Homo sapiens (Human), UniProt O75762); assay: FLIPR assay of inhibitory activity on human TRPA1 (calcium ion flux fluorescence); format: cell-based; details: HEK293 cells stably expressing human TRPA1
Description: 1. FLIPR Assay of Inhibitory Activity on Human TRPA1
A calcium ion flux fluorescence method (FLIPR assay) was adopted to measure the inhibitory activity of compounds on human TRPA1 channel. The literature reports of Lee and Chen et al. may be referred to for the method [Lee et al. Br J Pharmacol 2008, 153 (8): 1739-1749] [Chen et al. Pain 2011, 152(5):1165-72].
A HEK293 recombinant cell strain stably expressing human TRPA1 (Creative Biogene, NY) was cultured in DMEM (Thermo Fisher Scientific, Shanghai) medium (containing 10% calf serum, 5 μg/ml Blasticidin and 400 ug/ml G418). The incubator was under a condition of 37° C. and air humidity with 5% CO2.
TRPA1 cells were seeded in a 96-well analysis plate at a density of 75,000 cells per well (100 ul/well), and cultured overnight in an incubator at 37° C. and 5% CO2. On the second day, incubation was continued overnight under the same condition to induce the expression of TRPA1 after the culture medium in each well was poured out and a fresh supplement with the same culture medium containing 0.1 μg/ml Tetracycline was added. The further next day, the culture medium was pour out, a DMEM culture solution (also containing 2.5 mM Probenicid) containing 5 μM Fluo-4 AM (Molecular Probes) was added to each well, and incubation was conducted at 37° C. for 1 hour.
The compound was dissolved in 100% DMSO to prepare a 30 mM stock solution which was stored at −20° C. On the day of use, the compound stock solution was thawed at room temperature. Each compound was subjected to 1:5 serial dilution using DMSO medium at a starting concentration of 30 μM with 9 concentration points on a 96-well plate. Each compound was diluted in duplicate for testing. Ruthenium Red was used as the positive control compound and the same dilution was carried out at a starting concentration of 3 μM.
The cell analysis plate was placed in an FLIPR instrument […], and the compound in the compound plate was added to the corresponding hole on the cell analysis plate (First addition) via an automatic program, and the calcium ion fluorescence signal was recorded to determine whether the compound had agonistic activity. After 10 minutes, CaCl2 (Second addition) was added a final concentration of 3 mM to each well to stimulate intracellular calcium flux signals. Ca^++-dependent fluorescence signal was monitored continuously at 538 nm wavelength to analyze the inhibitory activity of the compounds.
The data was collected and analyzed using a FLIPR program. The fluorescence peak value was used to evaluate the inhibitory (or agonistic) activity of the compounds at each concentration. EXCEL and PRISM programs were used to calculate the IC50 value of the compounds.

[2] = target: T1, human TRPA1; assay: Inhibitory activity on human TRPA1 by conventional patch clamp assay; format: cell-based; details: HEK293 human TRPA1, 100 μM cinnamaldehyde
Text: 2. Inhibitory Activity on Human TRPA1 by Conventional Patch Clamp Assay
In order to compare the influences of different measuring methods on the inhibitory activity of compounds, a conventional patch clamp method was used to further measure the inhibitory activity of compounds 1, 11, 31, 50, and 78 on TRPA1. The principle and procedures of the conventional patch clamp assay could be found in the literature report of Chen et al [Chen et al. Pain 2011, 152(5):1165-72].
Evaluation of TRPA1 inhibitory activity of compounds was conducted using the HEK293 recombinant cell strain (Creative Biogene, NY) stably expressing human TRPA1. Cells were cultured in a DMEM/F12 (3:1, Thermo Fisher Scientific) medium (containing 5% calf serum, 2 mM glutamine and 20 mM HEPES) in an incubator at 37° C. and air humidity containing 5% CO2.
During the experiment, the adherent cells were placed in a recording room under the inverted microscope. All experiments were performed at room temperature. Each cell itself was used as a control thereof.
Test compounds at a final concentration were all prepared on the testing day and then dissolved in the extracellular fluid. The extracellular fluid was (mM): NaCl, 137; KCl, 4; CaCl2, 1.8; MgCl2, 1; HEPES, 10; glucose 10; pH 7.4 (NaOH titration). All the solutions of the test compounds and control compounds contained 0.3% DMSO.
The compounds were all perfused with a perfusion system by virtue of their own gravity. At least two cells were tested for each concentration of the compound. After the current became stable, the variation in magnitude of the current before and after the compound was used to calculate the blocking effect of the compound. 100 μM cinnamaldehyde was used as the positive control.
The cells were transferred to the perfusion tank and perfused with extracellular fluid. The intracellular fluid was: 130 mM K-aspartate; 5 mM MgCl2; 5 mM EGTA; 10 mM
HEPES; pH 7.2 (KOH titration). The intracellular fluid was stored in a small amount in a −80 degree refrigerator in batches, and thawed on the day of the experiment. The electrode was pulled with PC-10 (Narishige, Japan). Whole-cell patch clamp recording was adopted and noise was filtered at one-fifth of the sampling frequency.
The cells were clamped at 20 mV, and then depolarized to 80 mV with a square wave of 500 milliseconds to obtain the TRPA1 current (see FIG. 1).
This procedure was repeated every 3 seconds. Cells were patched in a normal extracellular fluid, current A was obtained via voltage procedure testing, and then perfusion was conducted with an extracellular fluid added with 100 μM cinnamaldehyde to activate TRPA1 current to obtain current B. After the current stabilized, elution was conducted with normal extracellular fluid and perfusion was conducted with an extracellular fluid added with 100 μM cinnamaldehyde and a compound at various concentrations to obtain current C. Finally, blocking rate of the compound was obtained according to […], see FIG. 2.
Data collection and analysis was conducted using pCLAMP 10 (Molecular Devices, Union City, CA). Current stabilization meant that the variation in the current with time was within a limited range. The magnitude of the current after stabilization was used to reflect the effect of the compound in this process.

[3] = system: mouse asthma model; details: cited from earlier work
[4] = system: guinea pigs; details: cough induced by acrolein, crotonaldehyde, cinnamaldehyde; cited from earlier work
[5] = system: mouse model of COPD; details: pretreatment of mice, cigarette smoke; cited from earlier work
[6] = system: asthmatic rats; assay: Ovalbumin-induced asthma rat model (HE staining, lung tissue inflammation area, airway inflammation score); format: in vivo, SD rats; details: compared with the model group
Text: 4. Effects of Compounds on Ovalbumin-Induced Asthma in Mouse and Rat Models
SPF-grade SD male rats (purchased from Zhejiang Academy of Medical Sciences, license number SCXK (Zhejiang) 2019-0002) with a body weight of 160-180 g; and SPF-grade female BABL/c mice (purchased from Zhejiang Weitong Lihua Experimental Animals Technology Co., Ltd., license number SCXK (Zhejiang) 2019-0001) with a body weight of 16-18 g were used. The above animals were raised by the Experimental Animal Center of Zhejiang Academy of Traditional Chinese Medicine.
Formulation of compound solution: compound was vortexed in a solvent system, dissolved by ultrasound, and prepared into a solution at a corresponding concentration, which was prepared just before use (the solvent system was composed of 5% Solutol HS 15, 5% DMSO and 90% physiological saline).
BABL/c mice or SD rats were randomly divided into: normal control group, model control group, dexamethasone group (0.72 mg/kg), and the respective test compound groups (one group for each dose), 10 mice in each group; 6 rats in each group.
Sensitization of rats: On Day 1 and Day 8, the model control group and the respective drug administration groups were intraperitoneally injected with 1 ml of 10% OVA sensitizing solution, and the normal group was intraperitoneally injected with an equal volume of normal saline.
Rat: from Day 15, the dexamethasone group and the respective test compound groups were intraperitoneally injected, 20 minutes before challenge, with the corresponding drugs with an injection volume of 0.3 ml/100 g; the model control group was intraperitoneally injected, 20 minutes before challenge, with an equal volume of solvent system; and the normal control group was not treated. Administration was conducted for 7 consecutive days. […]
The rat was anesthetized with 10% urethane at 1.3 ml/100 g volume, and the left lung tissue was taken and fixed in 4% neutral formaldehyde, paraffin-embedded according to routine operation, sectioned for HE staining. […] NIS-Elements D 3.2 software was used to manually integrate and measure the total area of lung tissue sections and the inflammation area under all fields of view, the total areas under each field of view were accumulated, and the percentage of the cumulative area of inflammation in the total area was calculated, wherein the percentage of inflammation area=cumulative area of inflammation/total area×100%.
All data were expressed as mean±standard deviation (x±s), and the data were processed by SPSS 20.0 statistical software. […]

T1 sequence (O75762 whole entry): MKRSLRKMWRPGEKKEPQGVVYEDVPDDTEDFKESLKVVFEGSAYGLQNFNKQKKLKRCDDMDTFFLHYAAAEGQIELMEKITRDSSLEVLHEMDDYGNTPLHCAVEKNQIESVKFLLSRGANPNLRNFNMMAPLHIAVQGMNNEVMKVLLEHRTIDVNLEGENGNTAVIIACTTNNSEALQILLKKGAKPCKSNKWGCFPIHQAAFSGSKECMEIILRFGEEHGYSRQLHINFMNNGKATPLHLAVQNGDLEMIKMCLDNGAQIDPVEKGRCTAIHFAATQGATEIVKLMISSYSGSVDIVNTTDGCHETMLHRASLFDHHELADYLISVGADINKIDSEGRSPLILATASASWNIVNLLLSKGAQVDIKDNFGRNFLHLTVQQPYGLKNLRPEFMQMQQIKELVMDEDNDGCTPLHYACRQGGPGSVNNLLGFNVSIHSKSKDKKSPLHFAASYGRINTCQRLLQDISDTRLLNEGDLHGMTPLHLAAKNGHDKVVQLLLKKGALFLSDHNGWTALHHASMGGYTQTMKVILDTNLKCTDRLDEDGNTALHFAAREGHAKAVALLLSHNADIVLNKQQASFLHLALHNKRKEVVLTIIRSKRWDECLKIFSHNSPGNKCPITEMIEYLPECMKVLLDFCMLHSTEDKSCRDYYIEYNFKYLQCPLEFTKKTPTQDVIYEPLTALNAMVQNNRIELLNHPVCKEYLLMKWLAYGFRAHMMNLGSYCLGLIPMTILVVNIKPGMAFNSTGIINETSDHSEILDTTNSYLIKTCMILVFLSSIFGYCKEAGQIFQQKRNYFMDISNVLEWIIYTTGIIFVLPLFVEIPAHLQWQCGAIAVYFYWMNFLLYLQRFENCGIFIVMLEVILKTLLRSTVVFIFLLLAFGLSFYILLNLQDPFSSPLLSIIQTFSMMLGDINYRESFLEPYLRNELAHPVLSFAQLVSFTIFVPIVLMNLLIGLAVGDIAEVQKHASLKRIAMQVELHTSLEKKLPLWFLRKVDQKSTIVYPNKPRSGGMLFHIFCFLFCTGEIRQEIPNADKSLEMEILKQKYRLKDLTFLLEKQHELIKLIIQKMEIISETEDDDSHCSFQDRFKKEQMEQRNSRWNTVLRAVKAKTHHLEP

| IC50 [1] [nM] | IC50 [2] [nM] | SMILES | also measured |
| --- | --- | --- | --- |
| 19 | 35 | N#Cc1ccc(NC2(C(=O)N3CCN(c4cccc(C(F)(F)F)n4)CC3)CCCC2)cc1 [Compound 11, 4-((1-(4-(6-(trifluoromethyl)pyridin-2-yl)piperazine-1-carbonyl)cyclopentyl)amino)benz onitrile] |  |
| 28 | 65 | N#Cc1ccc(OC2(C(=O)N3CCN(c4nccc(C(F)(F)F)n4)CC3)CCCC2)cc1 [Compound 50, 4-((1-(4-(4-(trifluoromethyl)pyrimidin-2-yl)piperazine-1-carbonyl)cyclopentyl)oxy)benz onitrile] |  |
| 53 | 83 | CC(C)(C)C1CCN(C(=O)C2Cc3cc(C#N)ccc3N2)CC1 (centres unmarked) [Compound 78, 2-(4-(tert-butyl)piperidine-1-carbonyl)-5-cyanoindoline] |  |
|  |  | Cn1c(=O)c2c(CC(=O)Nc3nc(-c4ccc(F)c(C(F)(F)F)c4F)cs3)csc2n(C)c1=O [GRC17536] | acidophilic leukocytes [3]: reduce; mucus secretion and airway hyperreactivity [3]: inhibit |
|  |  | CC(C)c1ccc(NC(=O)Cn2cnc3c2c(=O)n(C)c(=O)n3C)cc1 [HC-030031] | cough response [4]: significantly attenuate; plasma protein extravasation induced by CS [5]: protective effect |
|  |  | C[C@@H]1C[C@H]2[C@@H]3CCC4=CC(=O)C=C[C@]4(C)[C@@]3(F)[C@@H](O)C[C@]2(C)[C@@]1(O)C(=O)CO [dexamethasone, reference compound] | lung tissue inflammation and inflammatory cell infiltration around the airway (HE x40) [6]: significant improvement |
